Measured values published in PMC7731314, “Tropinone-Derived Alkaloids as Potent Anticancer Agents: Synthesis, Tyrosinase Inhibition, Mechanism of Action, DFT Calculation, and Molecular Docking Studies” (International Journal of Molecular Sciences, 2020).
Read-outs that look alike come from different tables or passages of the source.

Experiments:
[1] = test system: human lung carcinoma (A549) cell line; test: MTT cell proliferation assay, A549; assay type: cell-based; settings: antiproliferative, 96 h, read-out: IC50 ± SD A549
Method: (§1) The influence of the tested compounds on the proliferation of RPMI 8226 and A549 cells was estimated with the MTT assay as described previously. Briefly, 1 × 10^4 cells/mL (RPMI 8226) or 0.2 × 10^4 (A549) cells per well were seeded into 96-well plates and cultured (in growth medium containing 10% FBS) with different concentrations of each compound ranging from 3.125 to 100 μM. The control cells were treated with the vehicle DMSO (0.1%).

[2] = test system: human breast adenocarcinoma (MDA-MB-231) cell line; test: MTT cell proliferation assay, MDA-MB-231; assay type: cell-based; settings: read-out: IC50 ± SD MDA-MB-231
Source text: (§2) The influence of the tested compounds on the proliferation of melanoma B16F10 and breast MDA-MB-231 cells was estimated with the MTT assay as described previously. The cells counted using an automated cell counter (Countess® II FL, Invitrogen by Thermo Fisher Scientific Inc., Waltham, MA USA) and plated in 96-well plates (Nunc Edge 2F, Thermo Fisher Scientific Inc.) at a density of 0.1 × 10^4 and 0.2 × 10^4 per well, respectively. A total of twenty-four hours later, drugs were applied with final concentration: 5, 0.5, 0.05, and 0.005 μg/mL, and after an additional seventy-two hours MTT staining was performed as follows: twenty microliters of 5 mg/mL MTT solution and was added to each well of 96-well plate incubated for 2 h. Subsequently, the medium was removed and crystals of formazan were solubilized in pure isopropanol. Absorbance readout was conducted immediately using plate reader Multiskan Spectrum at 570 nm (Thermo Electron Corporation, Waltham, MA, USA). The background optical density was measured in the wells filled with culture medium, without the cells. The biological evaluation was performed as three independent experiments. The IC50 values were calculated using ED50plus v 1.0 freeware software and the mean response and standard deviation were calculated using Excel software. All of the chemicals were obtained from Sigma-Aldrich.

[3] = test system: human multiple myeloma (RPMI 8226) cell line; test: MTT cell proliferation assay, RPMI 8226; assay type: cell-based; settings: antiproliferative, 96 h, read-out: IC50 ± SD RPMI 8226
Method: as §1

[4] = test system: mouse skin melanoma (B16-F10) cell line; test: MTT cell proliferation assay, B16-F10; assay type: cell-based; settings: read-out: IC50 ± SD B16-F10
Source text: as §2

mushroom tyrosinase = mushroom tyrosinase (Agaricus bisporus, UniProt C7FF04); test: Kinetic analysis of the inhibition of tyrosinase (Lineweaver-Burk); assay type: biochemical; settings: tyrosinase-catalyzed oxidation of L-DOPA
mushroom tyrosinase, sequence (C7FF04 1-392): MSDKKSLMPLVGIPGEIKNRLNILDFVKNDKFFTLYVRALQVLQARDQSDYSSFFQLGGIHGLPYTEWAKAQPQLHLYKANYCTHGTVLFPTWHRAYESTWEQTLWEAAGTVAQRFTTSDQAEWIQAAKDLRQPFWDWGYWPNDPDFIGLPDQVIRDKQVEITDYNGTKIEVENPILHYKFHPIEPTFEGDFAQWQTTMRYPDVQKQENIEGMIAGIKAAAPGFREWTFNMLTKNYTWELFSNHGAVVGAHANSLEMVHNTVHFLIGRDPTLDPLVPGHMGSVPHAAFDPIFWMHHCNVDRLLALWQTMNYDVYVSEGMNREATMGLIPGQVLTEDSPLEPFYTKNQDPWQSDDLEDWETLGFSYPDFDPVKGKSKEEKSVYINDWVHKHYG
Method: To understand the mechanism of mushroom tyrosinase inhibition by new compounds 3a–3h, enzyme inhibition kinetic studies were performed. The mechanism of tyrosinase inhibition was determined using Lineweaver–Burk plot, which is a useful graphical method for analysis of the Michaelis–Menten equations used to determine the inhibition constant […].
A series of experiments were performed to determine the inhibition kinetics of compounds by following the already reported method. The inhibitor concentrations for compounds were 50 and 100 µM. Substrate L-DOPA concentration was between 100 and 250 µM in all kinetic studies. Maximal initial velocity was determined from the initial linear portion of absorbance up to ten minutes after addition of enzyme. The inhibition type of the enzyme, Michaelis constant (KM) and maximal velocity (Vmax) were determined by Lineweaver–Burk plots of inverse of velocities (1/V) versus inverse of substrate concentration 1/[L-DOPA] mM^−1.

in vitro [5] = test: in vitro
Method: (§3) The human normal skin fibroblasts, i.e., the HSF cell line, were a laboratory strain obtained with the outgrowth technique from skin explants from young volunteers (with subjects’ written informed consent). […] The CCD18-Co cells were grown in Eagle Medium (Sigma-Aldrich, St. Louis, MO, USA) supplemented with 2 mM L-glutamine (Sigma-Aldrich) and 1mM sodium pyruvate (Sigma-Aldrich, St. Louis, MO, USA), 10% FBS, (without antibiotics). HSF were cultured in a 1:1 mixture of Dulbecco’s modified Eagle Medium and Eagle Medium (Sigma-Aldrich) containing 10% FBS, 100 units/mL of penicillin, and 100 mg/mL of streptomycin. […] All cell lines were cultured in a humidified 5% CO2 atmosphere at a temperature of 37 °C. A stock solution of each tested compound was made in dimethylsulfoxide (DMSO; Sigma-Aldrich) and stored at 4 °C until use. The drug was diluted in an appropriate culture medium immediately before use.
(§4) The influence of the tested compounds on normal cell viability was estimated with the MTT assay. The CCD-18Co and HSF cells were seeded in 96-well microplates at a density of 1 × 10^5 cells/mL in complete growth medium. The next day, the medium was replaced with a fresh one containing 2% FBS (growth restriction) and the cells were exposed to each tested compound (3.156–100 µM) to study the acute toxicity in vitro. After 24-h incubation, the medium was removed and the cells were incubated for 3 h with an MTT solution; next, formazan crystals were solubilized overnight by adding SDS buffer and absorbance was determined at a wavelength of 570 nm using an EL800 Microplate Reader (BioTek Instruments, Winooski, VT, USA). The absorbance of the control wells was taken as 100% and the cell viability was expressed as a percentage of the control. CC50 values, defined as concentrations of the compounds necessary to reduce cell viability by 50%, were calculated from nonlinear regression (log(inhibitor) vs. normalized response-variable slope) using GraphPad Prism 5.0.

[6] = test system: human normal colon fibroblasts (CCD-18Co)
Method: as §3, §4

[7] = test system: human normal skin fibroblasts (HSF)
Method: as §3, §4

in vitro [8] = settings: human
Method: as §3, §4

[9] = MDA-MB-231, antiproliferative, MTT, 72 h
[10] = B16-F10, antiproliferative, MTT, 72 h

Row | SMILES | IC50 [1] [µM] | IC50 [2, 9] [µM] | IC50 [3] [µM] | melting point [°C] | IC50 [4, 10] [µM] | Inhibitory Mechanism (mushroom tyrosinase) | CC50 at 24 h (in vitro [5]) [µM] | CC50 ± SD CCD-18Co [6] | CC50 ± SD HSF [7] | CC50 at 24 h (in vitro [8]) [µM] | IC50 ([2]; MDA-MB-231, 72 h) [µM] | IC50 ([4]; B16-F10, 72 h) [µM]
1 | CN1C2CCC1CC(=NNc1nc(-c3ccc(C#N)cc3)cs1)C2 [Compound 3c, 4-[2-[2-(8-Methyl-8-azabicyclo[3.2.1]oct-3-ylidene)hydrazinyl]-1,3-thiazol-4-yl]benzonitrile] | 74.9 ± 7.65 | 2.7 ± 0.14 | 31.7 ± 2.77 | 90 to 92 | 1.52 ± 0.13 | mixed |  |  |  |  |  | 
2 | CN1C2CCC1CC(=NNc1nc(-c3ccc(NS(C)(=O)=O)cc3)cs1)C2 [Compound 3f, N-(4-[2-[2-(8-Methyl-8-azabicyclo[3.2.1]oct-3-ylidene)hydrazinyl]-1,3-thiazol-4-yl]phenyl)methane-sulfonamide] | 117 ± 22.8 | 2.48 ± 0.08 | 107 ± 7.22 | 98 to 100 | 2.14 ± 0.23 | mixed | 98.7 ± 4.16 | no toxicity | weak | > 100 |  | 
3 | CC(=O)Nc1ccc(-c2csc(NN=C3CC4CCC(C3)N4C)n2)cc1 [Compound 3h, N-(4-[2-[2-(8-Methyl-8-azabicyclo[3.2.1]oct-3-ylidene)hydrazinyl]-1,3-thiazol-4-yl]phenyl)acetamide] | 189 ± 33 | 2.9 ± 0.25 | 108 ± 4.8 | 97 to 99 | 3.03 ± 0.18 | mixed | > 100 | no toxicity | no toxicity | > 100 |  | 
4 | O=C(O)CCCc1ccc(N(CCCl)CCCl)cc1 [Chlorambucil, reference compound] |  |  |  |  |  |  |  |  |  |  | 4.71 ± 0.5 | 2.92 ± 0.1
5 | CN1C2CCC1CC(=NNc1nc(-c3ccc(N)cc3)cs1)C2 [Compound 3e, 4-[2-[2-(8-Methyl-8-azabicyclo[3.2.1]oct-3-ylidene)hydrazinyl]-1,3-thiazol-4-yl]aniline] | 263 ± 105 | 2.81 ± 0.12 | 67 ± 7.14 | 85 to 87 | 2.68 ± 0.4 | mixed | > 100 | no toxicity | no toxicity | > 100 |  | 
6 | CN1C2CCC1CC(=NNc1nc(-c3ccc([N+](=O)[O-])cc3)cs1)C2 [Compound 3d, 4-(4-Nitrophenyl)-2-(2-(8-methyl-8-azabicyclo[3.2.1]octan-3-ylidene)hydrazinyl)thiazole] | 31 ± 4.62 | 2.44 ± 0.14 | 17.9 ± 1.78 | 99 to 101 | 1.91 ± 0.04 | mixed |  |  |  |  |  | 
7 | COc1ccc(-c2csc(NN=C3CC4CCC(C3)N4C)n2)cc1 [Compound 3b, 4-(4-Methoxyphenyl)-2-(2-(8-methyl-8-azabicyclo[3.2.1]octan-3-ylidene)hydrazinyl)thiazole] | 133 ± 25.1 | 2.53 ± 0.07 | 42.2 ± 4.55 | 91 to 93 | 2.2 ± 0.04 | mixed |  |  |  |  |  | 
8 | CN1C2CCC1CC(=NNc1nc(-c3cc4ccccc4oc3=O)cs1)C2 [Compound 3g, 3-[2-[2-(8-Methyl-8-azabicyclo[3.2.1]oct-3-ylidene)hydrazinyl]-1,3-thiazol-4-yl]-2H-chromen-2-one] | 29.3 ± 3.98 | 2.83 ± 0.06 | 23.2 ± 4.52 | 110 to 113 | 3 ± 0.26 | mixed | 35.3 ± 5.52 |  |  | 42.6 ± 5.89 |  | 
